Among the data in ChEMBL document CHEMBL1153147, “Solid-phase synthesis and antibiotic activities of cyclodecapeptides on the scaffold of naturally occurring Laterocidin” (2010) are MIC values, retold here.

Values after ≈ are worked out from the molar mass of the structure shown.

What all share (format): functional
In experiment [1] the test system is Bacillus subtilis. In words: Antibacterial activity against Bacillus subtilis ATCC 82 after 20 hrs by broth dilution method. As to conditions: ATCC 82, 20 h. Background: In broth dilution the organism is exposed to a series of concentrations in liquid medium.
The test system of experiment [2] is Staphylococcus aureus. In words: Antibacterial activity against methicillin-resistant Staphylococcus aureus clinical isolate after 20 hrs by broth dilution method.
The subject of experiment [3] is Staphylococcus aureus. In words: Antibacterial activity against Staphylococcus aureus ATCC 29213 after 20 hrs by broth dilution method. The note with it: ATCC 29213, 20 h.
For experiment [4], the system named is Escherichia coli. In words: Antibacterial activity against extended spectrum beta lactamase-producing Escherichia coli clinical isolate after 20 hrs by broth dilution method.
The test system of experiment [5] is Escherichia coli. Nature of the experiment: Antibacterial activity against Escherichia coli ATCC 25922 after 20 hrs by broth dilution method. As to conditions: ATCC 25922, 20 h.
Experiment [6] deals with Pseudomonas aeruginosa. In words: Antibacterial activity against Pseudomonas aeruginosa ATCC 27853 after 20 hrs by broth dilution method. As to conditions: ATCC 27853, 20 h.
The test system of experiment [7] is Escherichia coli. Nature of the experiment: Antibacterial activity against drug-resistant Escherichia coli clinical isolate after 20 hrs by broth dilution method.

The term MIC denotes the lowest concentration that inhibits growth of the organism. A high value points to weaker potency. Take `CC(C)C[C@@H]1NC(=O)[C@H](CC(=O)O)NC(=O)[C@H](CC(N)=O)NC(=O)[C@@H](Cc2ccccc2)NC(=O)[C@H](Cc2ccccc2)NC(=O)[C@@H]2CCCN2C(=O)[C@@H](Cc2ccc(O)cc2)NC(=O)[C@H](CC(C)C)NC(=O)[C@H](CCCN)NC(=O)[C@H](C(C)C)NC1=O` [LATEROCIDIN]: the MIC was 16 µg/mL (≈ 13.1 µM) in experiment [1]; 128 µg/mL (≈ 105 µM) in experiment [2]; 32 µg/mL (≈ 26.2 µM) in experiment [3]; more than 256 µg/mL in experiment [4]; more than 256 µg/mL in experiment [5]; more than 256 µg/mL in experiment [6].

Regarding `CC(C)C[C@@H]1NC(=O)[C@H](CC(N)=O)NC(=O)[C@H](CC(N)=O)NC(=O)[C@H](Cc2ccccc2)NC(=O)[C@H](Cc2ccc(O)cc2)NC(=O)[C@@H]2CCCN2C(=O)[C@@H](Cc2ccccc2)NC(=O)[C@H](CC(C)C)NC(=O)[C@H](CCCN)NC(=O)[C@H](C(C)C)NC1=O`, the minimal inhibitory concentration (MIC) in experiment [1] is 32 µg/mL (≈ 26.2 µM); in experiment [2], 16 µg/mL (≈ 13.1 µM); in experiment [3], 32 µg/mL (≈ 26.2 µM); in experiment [4], more than 256 µg/mL; in experiment [5], more than 256 µg/mL; in experiment [6], more than 256 µg/mL.

In the case of `CC(C)C[C@@H]1NC(=O)[C@H](CCCN)NC(=O)[C@H](C(C)C)NC(=O)[C@H](CC(C)C)NC(=O)[C@H](CC(N)=O)NC(=O)[C@H](CC(N)=O)NC(=O)[C@H](Cc2ccccc2)NC(=O)[C@H](Cc2ccc(O)cc2)NC(=O)[C@@H]2CCCN2C(=O)[C@H](Cc2ccccc2)NC1=O`, the MIC was 64 µg/mL (≈ 52.4 µM) in experiment [1]; 128 µg/mL (≈ 105 µM) in experiment [2]; 64 µg/mL (≈ 52.4 µM) in experiment [3]; more than 256 µg/mL in experiment [4]; more than 256 µg/mL in experiment [5]; more than 256 µg/mL in experiment [6].

As for `CC(C)C[C@@H]1NC(=O)[C@H](CC(N)=O)NC(=O)[C@H](CC(N)=O)NC(=O)[C@@H](Cc2ccccc2)NC(=O)[C@H](Cc2ccc(O)cc2)NC(=O)[C@@H]2CCCN2C(=O)[C@@H](Cc2ccccc2)NC(=O)[C@H](CC(C)C)NC(=O)[C@H](CCCN)NC(=O)[C@H](C(C)C)NC1=O`, the minimum inhibitory concentration (MIC) in experiment [1] is 0.5 µg/mL (≈ 0.409 µM); in experiment [2], 1 µg/mL (≈ 0.818 µM); in experiment [3], 1 µg/mL (≈ 0.818 µM); in experiment [4], 64 µg/mL (≈ 52.4 µM); in experiment [5], more than 256 µg/mL; in experiment [6], more than 256 µg/mL. Also, the lowest concentration to inhibit growth in experiment [7] (MIC) was 16 µg/mL (≈ 13.1 µM).

Consider `CC(C)C[C@@H]1NC(=O)[C@H](CC(N)=O)NC(=O)[C@H](CC(N)=O)NC(=O)[C@@H](Cc2ccccc2)NC(=O)[C@H](Cc2ccccc2)NC(=O)[C@@H]2CCCN2C(=O)[C@@H](Cc2ccc(O)cc2)NC(=O)[C@H](CC(C)C)NC(=O)[C@H](CCCN)NC(=O)[C@H](C(C)C)NC1=O`, for which the MIC in experiment [1] is 1 µg/mL (≈ 0.818 µM); in experiment [2], 4 µg/mL (≈ 3.27 µM); in experiment [3], 2 µg/mL (≈ 1.64 µM); in experiment [4], 256 µg/mL (≈ 209 µM); in experiment [5] it was 64 µg/mL (≈ 52.4 µM); in experiment [6], more than 256 µg/mL. For the same molecule, the MIC in experiment [7] worked out at 64 µg/mL (≈ 52.4 µM).

With `CC(C)C[C@@H]1NC(=O)[C@H](CCCN)NC(=O)[C@H](C(C)C)NC(=O)[C@H](CC(C)C)NC(=O)[C@H](CC(N)=O)NC(=O)[C@H](CC(N)=O)NC(=O)[C@@H](Cc2ccccc2)NC(=O)[C@H](Cc2ccc(O)cc2)NC(=O)[C@@H]2CCCN2C(=O)[C@H](Cc2ccccc2)NC1=O`, the MIC in experiment [1] is 32 µg/mL (≈ 26.2 µM); in experiment [2], 256 µg/mL (≈ 209 µM); in experiment [3], 128 µg/mL (≈ 105 µM); in experiment [4] it was more than 256 µg/mL; in experiment [5], more than 256 µg/mL; in experiment [6], more than 256 µg/mL.

In the case of `CC(C)C[C@@H]1NC(=O)[C@H](CC(N)=O)NC(=O)[C@H](CC(N)=O)NC(=O)[C@@H](Cc2ccccc2)NC(=O)[C@H](Cc2ccccc2)NC(=O)[C@@H]2CCCN2C(=O)[C@@H](Cc2ccccc2)NC(=O)[C@H](CC(C)C)NC(=O)[C@H](CCCN)NC(=O)[C@H](C(C)C)NC1=O`, the MIC in experiment [1] is 2 µg/mL (≈ 1.66 µM); in experiment [2], 4 µg/mL (≈ 3.32 µM); in experiment [3], 2 µg/mL (≈ 1.66 µM); in experiment [4] it was 128 µg/mL (≈ 106 µM); in experiment [5], more than 256 µg/mL; in experiment [6] it was more than 256 µg/mL. The minimal inhibitory concentration (MIC) in experiment [7] amounted to 128 µg/mL (≈ 106 µM).
